{
  "source": "ChEMBL document CHEMBL1156023",
  "about": "“Grassystatins A-C from marine cyanobacteria, potent cathepsin E inhibitors that reduce antigen presentation” (J Med Chem, 2009)",
  "key": {"Renin": {"biological_target": "Renin (Homo sapiens, UniProt P00797)", "sequence (P00797 whole entry)": "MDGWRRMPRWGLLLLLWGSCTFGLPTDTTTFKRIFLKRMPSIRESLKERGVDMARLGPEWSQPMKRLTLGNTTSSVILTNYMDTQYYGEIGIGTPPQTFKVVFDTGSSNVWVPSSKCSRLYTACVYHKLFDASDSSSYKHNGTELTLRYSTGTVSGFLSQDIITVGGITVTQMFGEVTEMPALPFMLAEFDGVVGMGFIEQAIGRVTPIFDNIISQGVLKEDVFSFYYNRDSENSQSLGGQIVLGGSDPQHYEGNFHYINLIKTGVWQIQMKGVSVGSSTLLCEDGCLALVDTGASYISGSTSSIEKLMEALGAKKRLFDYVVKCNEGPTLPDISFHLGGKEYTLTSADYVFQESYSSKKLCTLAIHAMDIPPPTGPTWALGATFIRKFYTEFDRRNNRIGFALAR", "test": "Inhibition of human renin after 10 to 15 mins by fluorescence assay"}, "[1]": {"biological_target": "T1, Matrix metalloproteinase-9 (Homo sapiens, UniProt P14780)", "T1 sequence (P14780 whole entry)": "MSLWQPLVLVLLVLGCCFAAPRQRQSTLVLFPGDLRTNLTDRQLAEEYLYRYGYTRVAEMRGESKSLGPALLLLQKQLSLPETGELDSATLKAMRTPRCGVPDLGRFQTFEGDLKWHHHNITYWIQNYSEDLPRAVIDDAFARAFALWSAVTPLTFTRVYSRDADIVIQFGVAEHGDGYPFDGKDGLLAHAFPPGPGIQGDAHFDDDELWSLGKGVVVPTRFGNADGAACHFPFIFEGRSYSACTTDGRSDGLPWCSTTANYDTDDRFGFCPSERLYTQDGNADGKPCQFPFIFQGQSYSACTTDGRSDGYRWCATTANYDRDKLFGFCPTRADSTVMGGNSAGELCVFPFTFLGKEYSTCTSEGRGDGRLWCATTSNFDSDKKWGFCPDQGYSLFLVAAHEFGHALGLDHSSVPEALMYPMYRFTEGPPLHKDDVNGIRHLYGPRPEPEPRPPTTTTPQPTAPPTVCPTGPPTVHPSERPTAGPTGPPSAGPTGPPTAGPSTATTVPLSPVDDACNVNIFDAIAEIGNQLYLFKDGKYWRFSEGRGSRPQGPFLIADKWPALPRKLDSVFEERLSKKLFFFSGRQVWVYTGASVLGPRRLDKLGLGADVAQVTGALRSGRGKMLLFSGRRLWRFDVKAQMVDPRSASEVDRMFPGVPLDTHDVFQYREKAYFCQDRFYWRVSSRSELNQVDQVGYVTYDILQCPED", "test": "Inhibition of MMP9 assessed as residual activity at 10 uM after 10 to 15 mins by fluorescence assay relative to control"}, "[2]": {"biological_target": "T1, Matrix metalloproteinase-9", "test": "Inhibition of MMP9 catalytic domain after 10 to 15 mins by fluorescence assay"}, "[3]": {"biological_target": "Dipeptidyl peptidase 4 (Homo sapiens) (UniProt P27487)", "test": "Inhibition of DPP4 assessed as residual activity at 10 uM after 10 to 15 mins by fluorescence assay relative to control"}, "[4]": {"biological_target": "Disintegrin and metalloproteinase domain-containing protein 17 (Homo sapiens, UniProt P78536)", "settings": "5.08 to 100000 nM"}, "[5]": {"biological_target": "Matrilysin (Homo sapiens) (UniProt P09237)", "sequence (P09237 whole entry)": "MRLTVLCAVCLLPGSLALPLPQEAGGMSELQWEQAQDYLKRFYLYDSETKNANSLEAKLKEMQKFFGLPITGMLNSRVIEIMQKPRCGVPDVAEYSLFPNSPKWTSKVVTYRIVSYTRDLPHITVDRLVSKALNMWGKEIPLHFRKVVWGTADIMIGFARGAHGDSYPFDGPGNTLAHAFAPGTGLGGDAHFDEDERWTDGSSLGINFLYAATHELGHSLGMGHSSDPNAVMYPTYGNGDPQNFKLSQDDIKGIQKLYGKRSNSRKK", "test": "Inhibition of MMP7 assessed as residual activity at 10 uM after 10 to 15 mins by fluorescence assay relative to control"}, "[6]": {"biological_target": "Chymotrypsin-like elastase family member 1 (Sus scrofa) (UniProt P00772)", "sequence (P00772 whole entry)": "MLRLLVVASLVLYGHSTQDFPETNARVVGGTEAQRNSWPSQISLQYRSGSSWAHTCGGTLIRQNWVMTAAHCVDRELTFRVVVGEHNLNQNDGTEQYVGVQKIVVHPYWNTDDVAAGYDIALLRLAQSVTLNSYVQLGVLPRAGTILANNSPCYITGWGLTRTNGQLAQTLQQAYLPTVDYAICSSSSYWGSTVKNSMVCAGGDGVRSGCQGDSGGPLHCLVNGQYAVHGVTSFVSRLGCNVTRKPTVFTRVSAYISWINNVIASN", "test": "Inhibition of porcine pancreatic elastase assessed as residual activity at 10 uM after 10 to 15 mins by fluorescence assay relative to control"}, "[7]": {"biological_target": "Macrophage metalloelastase (Homo sapiens, UniProt P39900)", "test": "Inhibition of MMP12 catalytic domain after 10 to 15 mins by fluorescence assay"}, "[8]": {"biological_target": "Plasma kallikrein (Homo sapiens) (UniProt P03952)", "test": "Inhibition of plasma kallikrein assessed as residual activity at 10 uM after 10 to 15 mins by fluorescence assay relative to control", "type": "cell-free"}, "Stromelysin-3": {"biological_target": "Stromelysin-3 (Homo sapiens, UniProt P24347)", "sequence (P24347 whole entry, the tested form may be a part)": "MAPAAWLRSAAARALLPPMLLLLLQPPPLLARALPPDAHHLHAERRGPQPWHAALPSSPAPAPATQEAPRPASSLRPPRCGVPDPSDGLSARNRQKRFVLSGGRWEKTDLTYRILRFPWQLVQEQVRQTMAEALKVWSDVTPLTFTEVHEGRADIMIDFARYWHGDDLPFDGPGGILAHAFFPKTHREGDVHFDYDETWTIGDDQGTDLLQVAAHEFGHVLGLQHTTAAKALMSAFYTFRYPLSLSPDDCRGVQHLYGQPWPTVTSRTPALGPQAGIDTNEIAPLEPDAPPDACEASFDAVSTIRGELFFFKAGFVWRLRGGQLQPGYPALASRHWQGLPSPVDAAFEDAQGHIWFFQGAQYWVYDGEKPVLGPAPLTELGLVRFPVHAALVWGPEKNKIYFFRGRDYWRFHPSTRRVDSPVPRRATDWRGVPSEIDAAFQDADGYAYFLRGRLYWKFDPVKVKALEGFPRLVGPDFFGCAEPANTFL", "test": "Inhibition of MMP11 catalytic domain after 10 to 15 mins by fluorescence assay"}, "[9]": {"biological_target": "Dipeptidyl peptidase 1 (Homo sapiens) (UniProt P53634)", "test": "Inhibition of cathepsin C assessed as residual activity at 10 uM after 10 to 15 mins by fluorescence assay relative to control"}, "[10]": {"biological_target": "Cathepsin Z (Homo sapiens) (UniProt Q9UBR2)", "test": "Inhibition of cathepsin Z assessed as residual activity at 10 uM after 10 to 15 mins by fluorescence assay relative to control"}, "Caspase-4 [11]": {"biological_target": "Caspase-4 (Homo sapiens, UniProt P49662)", "test": "Inhibition of caspase 4 after 10 to 15 mins by fluorescence assay"}, "Caspase-9": {"biological_target": "Caspase-9 (Homo sapiens, UniProt P55211)", "test": "Inhibition of caspase 9 after 10 to 15 mins by fluorescence assay"}, "Caspase-2": {"biological_target": "Caspase-2 (Homo sapiens, UniProt P42575)", "test": "Inhibition of caspase 2 after 10 to 15 mins by fluorescence assay"}, "Stromelysin-2": {"biological_target": "Stromelysin-2 (Homo sapiens, UniProt P09238)", "sequence (P09238 99-476 limits assumed)": "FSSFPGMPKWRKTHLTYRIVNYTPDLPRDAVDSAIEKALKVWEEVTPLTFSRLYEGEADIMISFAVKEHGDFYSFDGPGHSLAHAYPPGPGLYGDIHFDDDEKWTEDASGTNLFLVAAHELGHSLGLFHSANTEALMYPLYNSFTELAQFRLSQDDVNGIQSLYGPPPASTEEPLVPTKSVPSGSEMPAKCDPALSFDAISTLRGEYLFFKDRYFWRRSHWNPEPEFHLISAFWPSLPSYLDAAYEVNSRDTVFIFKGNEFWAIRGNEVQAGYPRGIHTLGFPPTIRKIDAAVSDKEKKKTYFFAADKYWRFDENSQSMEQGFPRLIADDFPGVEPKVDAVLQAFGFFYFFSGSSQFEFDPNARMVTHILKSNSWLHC", "test": "Inhibition of MMP10 assessed as residual activity at 10 uM after 10 to 15 mins by fluorescence assay relative to control"}, "Collagenase 3 [12]": {"biological_target": "T2, Collagenase 3 (Homo sapiens, UniProt P45452)", "test": "Inhibition of MMP13 catalytic domain after 10 to 15 mins by fluorescence assay"}, "Collagenase 3 [13]": {"biological_target": "T2, Collagenase 3", "test": "Inhibition of MMP13 assessed as residual activity at 10 uM after 10 to 15 mins by fluorescence assay relative to control"}, "[14]": {"biological_target": "Urokinase-type plasminogen activator (Homo sapiens) (UniProt P00749)", "test": "Inhibition of urokinase assessed as residual activity at 10 uM after 10 to 15 mins by fluorescence assay relative to control"}, "Caspase-5": {"biological_target": "Caspase-5 (Homo sapiens, UniProt P51878)", "sequence (P51878 137-327 limits assumed)": "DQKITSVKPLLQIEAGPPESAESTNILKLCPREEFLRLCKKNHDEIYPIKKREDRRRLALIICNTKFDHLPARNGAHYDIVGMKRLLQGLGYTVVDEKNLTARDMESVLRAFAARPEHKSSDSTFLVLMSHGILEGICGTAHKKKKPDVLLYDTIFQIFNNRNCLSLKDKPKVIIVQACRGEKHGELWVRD", "sequence (P51878 347-434 limits assumed)": "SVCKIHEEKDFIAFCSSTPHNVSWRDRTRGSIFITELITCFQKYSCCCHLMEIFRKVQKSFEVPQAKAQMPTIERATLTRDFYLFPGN", "test": "Inhibition of caspase 5 after 10 to 15 mins by fluorescence assay"}, "Chymase (Homo sapiens)": {"biological_target": "Chymase (Homo sapiens) (UniProt P23946)", "test": "Inhibition of chymase assessed as residual activity at 10 uM after 10 to 15 mins by fluorescence assay relative to control"}, "[15]": {"biological_target": "Stromelysin-3 (Homo sapiens) (UniProt P24347)", "sequence (P24347 whole entry)": "as the sequence (P24347 whole entry, the tested form may be a part) above", "test": "Inhibition of MMP11 assessed as residual activity at 10 uM after 10 to 15 mins by fluorescence assay relative to control"}, "[16]": {"biological_target": "Tryptase beta-1 (Homo sapiens) (UniProt Q15661)", "test": "Inhibition of tryptase beta2 assessed as residual activity at 10 uM after 10 to 15 mins by fluorescence assay relative to control"}, "[17]": {"biological_target": "Plasminogen (Homo sapiens) (UniProt P00747)", "test": "Inhibition of human plasmin assessed as residual activity at 10 uM after 10 to 15 mins by fluorescence assay relative to control"}, "Caspase-2 (Homo sapiens)": {"biological_target": "Caspase-2 (Homo sapiens) (UniProt P42575)", "test": "Inhibition of caspase 2 assessed as residual activity at 10 uM after 10 to 15 mins by fluorescence assay relative to control"}, "Caspase-4 [18]": {"biological_target": "Caspase-4 (Mus musculus, UniProt P70343)", "sequence (P70343 81-266 limits assumed)": "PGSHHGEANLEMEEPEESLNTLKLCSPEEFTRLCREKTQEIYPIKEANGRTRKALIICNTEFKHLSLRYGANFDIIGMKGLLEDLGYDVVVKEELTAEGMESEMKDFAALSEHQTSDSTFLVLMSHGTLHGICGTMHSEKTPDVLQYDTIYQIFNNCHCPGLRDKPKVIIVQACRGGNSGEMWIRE", "sequence (P70343 286-373 limits assumed)": "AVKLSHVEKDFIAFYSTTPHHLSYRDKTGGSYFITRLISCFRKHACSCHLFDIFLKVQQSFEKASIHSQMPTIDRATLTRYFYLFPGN", "test": "Inhibition of mouse caspase 11 after 10 to 15 mins by fluorescence assay"}, "Caspase-1 (Homo sapiens)": {"biological_target": "Caspase-1 (Homo sapiens) (UniProt P29466)", "test": "Inhibition of caspase 1 assessed as residual activity at 10 uM after 10 to 15 mins by fluorescence assay relative to control"}, "[19]": {"biological_target": "Tryptase gamma (Homo sapiens) (UniProt Q9NRR2)", "sequence (Q9NRR2 38-321 limits assumed, other chains not shown)": "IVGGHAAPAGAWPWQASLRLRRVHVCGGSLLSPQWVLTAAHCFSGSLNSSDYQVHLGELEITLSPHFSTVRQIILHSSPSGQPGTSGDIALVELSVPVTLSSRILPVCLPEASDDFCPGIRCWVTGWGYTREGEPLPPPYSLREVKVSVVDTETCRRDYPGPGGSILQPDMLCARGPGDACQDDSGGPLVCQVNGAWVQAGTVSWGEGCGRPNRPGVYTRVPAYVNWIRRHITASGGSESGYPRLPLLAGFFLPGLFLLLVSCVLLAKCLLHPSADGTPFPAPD", "test": "Inhibition of human lung tryptase gamma1 assessed as residual activity at 10 uM after 10 to 15 mins by fluorescence assay relative to control"}, "[20]": {"biological_target": "Matrix metalloproteinase-14 (Homo sapiens, UniProt P50281)", "test": "Inhibition of MMP14 catalytic domain after 10 to 15 mins by fluorescence assay"}, "Interstitial collagenase": {"biological_target": "Interstitial collagenase (Homo sapiens, UniProt P03956)", "sequence (P03956 whole entry)": "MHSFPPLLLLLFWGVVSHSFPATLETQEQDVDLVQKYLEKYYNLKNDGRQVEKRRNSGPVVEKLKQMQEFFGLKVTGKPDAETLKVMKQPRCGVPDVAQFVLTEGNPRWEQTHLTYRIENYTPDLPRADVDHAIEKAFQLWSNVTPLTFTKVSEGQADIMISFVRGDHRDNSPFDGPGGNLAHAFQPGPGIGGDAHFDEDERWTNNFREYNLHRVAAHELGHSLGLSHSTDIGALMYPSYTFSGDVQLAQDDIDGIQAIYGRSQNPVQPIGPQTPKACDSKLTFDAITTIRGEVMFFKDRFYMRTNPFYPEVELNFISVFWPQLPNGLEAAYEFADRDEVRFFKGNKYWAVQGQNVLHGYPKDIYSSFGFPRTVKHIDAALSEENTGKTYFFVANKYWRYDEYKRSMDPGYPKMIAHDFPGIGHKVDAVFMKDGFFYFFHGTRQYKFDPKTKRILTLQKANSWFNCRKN", "test": "Inhibition of MMP1 after 10 to 15 mins by fluorescence assay"}, "Papain (Carica papaya)": {"biological_target": "Papain (Carica papaya) (UniProt P00784)", "sequence (P00784 whole entry)": "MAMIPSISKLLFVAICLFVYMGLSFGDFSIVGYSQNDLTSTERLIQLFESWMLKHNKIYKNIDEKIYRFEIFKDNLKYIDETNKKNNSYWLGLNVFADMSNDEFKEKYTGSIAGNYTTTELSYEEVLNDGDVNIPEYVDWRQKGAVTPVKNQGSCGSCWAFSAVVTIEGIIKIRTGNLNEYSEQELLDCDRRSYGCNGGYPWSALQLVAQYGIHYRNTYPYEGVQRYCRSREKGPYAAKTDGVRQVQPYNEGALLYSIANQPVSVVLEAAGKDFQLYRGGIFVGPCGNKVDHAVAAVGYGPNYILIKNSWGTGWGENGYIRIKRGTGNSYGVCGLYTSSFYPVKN", "test": "Inhibition of papaya papain assessed as residual activity at 10 uM after 10 to 15 mins by fluorescence assay relative to control"}, "Stromelysin-1": {"biological_target": "Stromelysin-1 (Homo sapiens, UniProt P08254)", "test": "Inhibition of MMP3 after 10 to 15 mins by fluorescence assay"}, "[21]": {"biological_target": "Vitamin K-dependent protein C (Homo sapiens, UniProt P04070)", "sequence (P04070 43-197 limits assumed)": "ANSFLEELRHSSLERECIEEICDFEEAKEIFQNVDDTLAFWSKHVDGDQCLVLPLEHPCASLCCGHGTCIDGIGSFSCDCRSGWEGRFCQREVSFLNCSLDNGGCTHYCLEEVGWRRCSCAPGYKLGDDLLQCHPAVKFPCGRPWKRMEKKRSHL", "sequence (P04070 212-461 limits assumed)": "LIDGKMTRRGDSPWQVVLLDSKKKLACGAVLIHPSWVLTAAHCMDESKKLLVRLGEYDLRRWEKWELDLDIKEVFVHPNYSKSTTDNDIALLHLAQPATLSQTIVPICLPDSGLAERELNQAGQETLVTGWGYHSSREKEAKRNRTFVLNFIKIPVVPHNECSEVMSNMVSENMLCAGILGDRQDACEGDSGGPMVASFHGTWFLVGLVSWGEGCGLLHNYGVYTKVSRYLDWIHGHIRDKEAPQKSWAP", "test": "Inhibition of activated protein C after 10 to 15 mins by fluorescence assay in presence of 50% […]"}, "Caspase-9 (Homo sapiens)": {"biological_target": "Caspase-9 (Homo sapiens) (UniProt P55211)", "test": "Inhibition of caspase 9 assessed as residual activity at 10 uM after 10 to 15 mins by fluorescence assay relative to control"}, "[22]": {"biological_target": "Caspase-14 (Homo sapiens) (UniProt P31944)", "test": "Inhibition of caspase 14 assessed as residual activity at 10 uM after 10 to 15 mins by fluorescence assay relative to control"}, "Caspase-10": {"biological_target": "Caspase-10 (Homo sapiens, UniProt Q92851)", "test": "Inhibition of caspase 10 after 10 to 15 mins by fluorescence assay"}, "Caspase-6": {"biological_target": "Caspase-6 (Homo sapiens, UniProt P55212)", "test": "Inhibition of caspase 6 after 10 to 15 mins by fluorescence assay"}, "[23]": {"biological_target": "Disintegrin and metalloproteinase domain-containing protein 10 (Homo sapiens) (UniProt O14672)", "test": "Inhibition of ADAM10 assessed as residual activity at 10 uM after 10 to 15 mins by fluorescence assay relative to control"}},
  "note": "Square brackets hold non-standard residues; d marks the D form. Peptide text beside a SMILES is read from it. * marks the point of attachment. Sta = CC(C)C[C@H](N)[C@@H](O)CC(=O)O; NMe2Val = CC(C)[C@@H](C(=O)*)N(C)C; dNMeF = CN[C@H](Cc1ccccc1)C(=O)O; dHiv = CC(C)[C@@H](O)C(=O)O; Hiv = CC(C)[C@H](O)C(=O)O",
  "data": [
    {"smiles": "COC(=O)[C@@H]1CCCN1C(=O)[C@@H](Cc1ccccc1)N(C)C(=O)[C@H](C)NC(=O)[C@@H](NC(=O)C[C@H](O)[C@H](CC(C)C)NC(=O)[C@H](CC(N)=O)NC(=O)[C@H](CC(C)C)NC(=O)[C@H](OC(=O)[C@@H](OC(=O)[C@H](C(C)C)N(C)C)C(C)C)C(C)C)[C@@H](C)O", "note": "[GRASSYSTATIN A] (NMe2Val-[Hiv][dHiv]LN[Sta]TA[dNMeF]P-OMe)", "values": [
      {"measurement": "IC50", "setting": "Renin", "value": 50, "unit": "µM"},
      {"measurement": "Activity", "setting": "[1]", "value": 81, "unit": "%"},
      {"measurement": "IC50", "setting": "[2]", "value": 5, "unit": "µM"},
      {"measurement": "Activity", "setting": "[3]", "value": 71, "unit": "%"},
      {"measurement": "inhibition", "setting": "[4]", "value": "tde"},
      {"measurement": "Activity", "setting": "[5]", "value": 90, "unit": "%"},
      {"measurement": "Activity", "setting": "[6]", "value": 66, "unit": "%"},
      {"measurement": "IC50", "setting": "[7]", "value": 5, "unit": "µM"},
      {"measurement": "Activity", "setting": "[8]", "value": 78, "unit": "%"},
      {"measurement": "IC50", "setting": "Stromelysin-3", "value": 5, "unit": "µM"},
      {"measurement": "Activity", "setting": "[9]", "value": 110, "unit": "%"},
      {"measurement": "Activity", "setting": "[10]", "value": 94, "unit": "%"},
      {"measurement": "IC50", "setting": "Caspase-4 [11]", "value": 5, "unit": "µM"},
      {"measurement": "IC50", "setting": "Caspase-9", "value": 5, "unit": "µM"},
      {"measurement": "IC50", "setting": "Caspase-2", "value": 5, "unit": "µM"},
      {"measurement": "Activity", "setting": "Stromelysin-2", "value": 76, "unit": "%"},
      {"measurement": "IC50", "setting": "Collagenase 3 [12]", "value": 5, "unit": "µM"},
      {"measurement": "Activity", "setting": "Collagenase 3 [13]", "value": 75, "unit": "%"},
      {"measurement": "Activity", "setting": "[14]", "value": 79, "unit": "%"},
      {"measurement": "IC50", "setting": "Caspase-5", "value": 5, "unit": "µM"},
      {"measurement": "Activity", "setting": "Chymase (Homo sapiens)", "value": 90, "unit": "%"},
      {"measurement": "Activity", "setting": "[15]", "value": 88, "unit": "%"},
      {"measurement": "Activity", "setting": "[16]", "value": 74, "unit": "%"},
      {"measurement": "Activity", "setting": "[17]", "value": 86, "unit": "%"},
      {"measurement": "Activity", "setting": "Caspase-2 (Homo sapiens)", "value": 69, "unit": "%"},
      {"measurement": "IC50", "setting": "Caspase-4 [18]", "value": 5, "unit": "µM"},
      {"measurement": "Activity", "setting": "Caspase-1 (Homo sapiens)", "value": 90, "unit": "%"},
      {"measurement": "Activity", "setting": "[19]", "value": 80, "unit": "%"},
      {"measurement": "IC50", "setting": "[20]", "value": 5, "unit": "µM"},
      {"measurement": "IC50", "setting": "Interstitial collagenase", "value": 5, "unit": "µM"},
      {"measurement": "Activity", "setting": "Papain (Carica papaya)", "value": 101, "unit": "%"},
      {"measurement": "IC50", "setting": "Stromelysin-1", "value": 5, "unit": "µM"},
      {"measurement": "IC50", "setting": "[21]", "value": 50, "unit": "µM"},
      {"measurement": "Activity", "setting": "Caspase-9 (Homo sapiens)", "value": 78, "unit": "%"},
      {"measurement": "Activity", "setting": "[22]", "value": 96, "unit": "%"},
      {"measurement": "IC50", "setting": "Caspase-10", "value": 5, "unit": "µM"},
      {"measurement": "IC50", "setting": "Caspase-6", "value": 5, "unit": "µM"},
      {"measurement": "Activity", "setting": "[23]", "value": 0, "unit": "%"}
    ]}
  ]
}
